Results on three substances are retold here after patent US9388215B2, “Compositions and methods of using islet neogenesis peptides and analogs thereof” (SHENZHEN HIGHTIDE BIOPHARMACEUTICAL, LTD., priority 2013, dated 2016).

Read-outs that look alike come from different tables or passages of the source.

Usually AUC(0-t) stands for exposure summed from dosing to a finite time, without extrapolation to infinity. The Cmax is the highest concentration seen after dosing.

Data set [1] can be described thus: Pharmacokinetics in rat, subcutaneous bolus (Example VII). It counts as in vivo. Conditions: male, Sprague-Dawley, plasma, RAT (SC), 25 mg/kg; for AUC(0-t): read-out: AUC(0-t); for AUC(0-inf): read-out: AUC(0-∞); for Cmax: read-out: Cmax. The method, then: (§1) After 7 days acclimation, male Sprague-Dawley (SD) rats weighing 210-250 g, or male C57BL/6 mice, weighing 19-24 g, in good health were used in the study. Peptide 1, Peptide 12 and Peptide 16 were dissolved in sterile normal saline and then they were injected via subcutaneous (sc) bolus or intravenous (iv) bolus at the dose level of 25 mg/kg. Three animals in each group were used for blood collection at the time point of 5 min, 15 min, 30 min, 1 h, 2 h, 4 h, 6 h, 8 h and 24 h post-dose. Blood samples (approximately 400 μL) were collected and placed into tubes containing EDTA-K2 and centrifuged at 8000 rpm for 6 minutes at 4° C. to separate plasma from the samples. The resulting plasma was stored frozen at −80° C. until being analyzed. Plasma concentrations of peptides were determined using tandem mass spectrometry (LC-MS/MS) analysis. A non-compartmental module of WinNonlin® Professional 5.2 (Pharsight; St. Louis Mo.), was used to calculate PK parameters. The abbreviation AUC(0-t) represents area under the curve from the time of dosing to the time of the last observation, the AUC(0-∞) represents area under the curve from the time of dosing to infinity, and the Cmax represents maximum concentration detected.

The nature of data set [2]: Peptide concentration in plasma and pancreas 30 min post dose. Format: in vivo, rat. The following applies: male SD rats, sc bolus 25 mg/kg, 30 min post-dose; for level at 0.5 h: male, Sprague-Dawley, rat, sc, 25 mg/kg. The method, then:
To further characterize the pharmacokinetic (PK) properties of peptides, peptide concentration in pancreas—the target organ, was determined 30 min post dose. Briefly, INGAP-PP (Peptide 1), Peptide 12, or Peptide 31 was dissolved in sterile normal saline and then was administered via subcutaneous (sc) bolus at the dose level of 25 mg/kg to male Sprague-Dawley (SD) rats. Five animals in each group were used for blood and pancreas collection at the time point of 30 min post-dose. Blood samples (approximately 400 μL) were collected and placed into tubes containing EDTA-K2 and centrifuged at 8000 rpm for 6 minutes at 4° C. to separate plasma from the samples. After blood extraction and animal sacrifice, the pancreas was removed immediately from each animal, cleared of fat and lymph nodes, weighed, and placed into 5 fold volume of ice cold sterile normal saline with protease inhibitor cocktail (Merck Millipore, catalogue #539137) to homogenize with a homogenizer.
The peptide concentration of the plasma and pancreatic homogenate was determined immediately using tandem mass spectrometry (LC-MS/MS) analysis and the results are presented in Table 8.

Data set [3] is described as follows: Pharmacokinetics in rat, intravenous bolus. The following applies: male, Sprague-Dawley, plasma, RAT (IV), 25 mg/kg; for AUC(0-t): read-out: AUC(0-t); for AUC(0-inf): read-out: AUC(0-∞); for Cmax: read-out: Cmax. It counts as in vivo. As to the method: as §1
Data set [4] is described as follows: Pharmacokinetics in mouse, subcutaneous bolus. It counts as in vivo. Conditions: male, C57BL/6, plasma, MOUSE (SC), 25 mg/kg; for AUC(0-t): read-out: AUC(0-t); for AUC(0-inf): read-out: AUC(0-∞); for Cmax: read-out: Cmax. The method, then: as §1
Data set [5] in a line: Peptide stability in rat plasma. Format: in vitro ADME. Conditions: 100 μg/mL, 37° C.; FIG. 12, 13. As to the method:
The stability of peptides was also tested in rat, mouse and human plasma. Briefly, a certain amount of peptides and eucatropine powder (positive control) was accurately weighed. Test compounds were dissolved in 50% methanol-water solution and diluted to 20 mg/mL, and eucatropine was dissolved in dimethylsulfoxide (DMSO) and diluted to 10 mM, as a stock solution. Eucatropine stock solution was diluted to 0.2 mM with DMSO as a working solution. A stop reagent was prepared containing 200 ng/mL midazolam and tolbutamide in acetonitrile. A volume of 300 μL of stop solution was added to each well of a 96-well deep-well plate placed on ice beforehand.
For the stability studies, peptides and eucatropine were spiked into plasma respectively, mixed well, and then 100 μL of each mixture solution was transferred into the pre-cooled stop reagent as 0 time point sample. The remaining mixtures were incubated in a 37° C. water bath with shaking at 100 rpm (n=2). The final incubation concentration was 1 μM for eucatropine and 100 μg/mL for all test compounds.
At desired time points, 100 μL of incubation mixture was transferred to the stop reagent to precipitate proteins. Samples were vortexed and centrifuged at RCF 5000×g for 10 minutes, and supernatant was transferred to a test plate. The samples were analyzed by LC-MS/MS.
Slope was calculated by plotting the natural logarithm of the percentage of remaining amount of test compounds and time, and T1/2 was calculated in accordance with the following formula.
For stability in rat plasma, the incubation time was 0, 15, 30, 60 and 120 min for Peptide 1 and eucatropine, and 0, 15, 30, 60, 120, and 240 min for Peptide 12, Peptide 16, Peptide 29 and Peptide 31.
In another stability study in rat plasma, the incubation time was 0, 30, 60 120 and 240 min for Peptide 2, Peptide 52, Peptide 64 and eucatropine.

The nature of data set [6]: Peptide stability in culture medium (F-12K, 37° C., HPLC). It counts as physicochemical. The following applies: F-12K medium, 0.25 mg/mL, 0-72 hours, FIG. 2, FIG. 11. As to the method: To determine the stability of peptides in culture medium, a certain amount of selected peptides was accurately weighed and dissolved in distilled water to 5 mg/mL as a stock solution. The stock solution was diluted to 0.25 mg/mL with F-12K medium (Gibco-BRL, Gaithersburg, Md., USA) as working solution. A volume of 100 μL of each working solution was transferred into individual sample vials. The sample vials were incubated in a 37° C. incubator for 0, 24, 48 and 72 hours before being analyzed and quantitated by HPLC. […]

The mark [7] stands for this setting: plasma, read-out: Peptide concentration, Plasma.

For “H-IGLHDPSHGTLPNGS-OH [Peptide 1, H-IGLHDPSHGTLPNGS-OH, reference compound]”, in data set [1], the AUC(0-t) was determined as 298 ng·h/mL, the AUC(0-inf) is 305 ng·h/mL and the Cmax came out at 1240 ng/mL. Further, the “Peptide concentration, Pancreas” value in data set [2] (pancreatic homogenate) was “NA (Below the lower limit of quantitation (LLOQ) 2.5 ng/mL)”. Moreover, the level at 0.5 h in data set [2] (setting [7]) worked out at 210 ± 107 ng/mL. In data set [3], the AUC(0-t) was 21.9 ng·h/mL, the AUC(0-inf) is 27.1 ng·h/mL and the Cmax is 48.7 ng/mL. Further, in data set [4], the area under the curve AUC(0-t) amounted to 54.5 ng·h/mL, the AUC(0-inf) stood at 58.3 ng·h/mL and the Cmax was 141 ng/mL.
As for “Ac-IGLHDPSHGTLPNGS-NH2 [Peptide 31, Ac-IGLHDPSHGTLPNGS-NH2]”, the level at 0.5 h was 1630 ± 340 ng/mL in data set [2] (pancreas (homogenate), pancreatic homogenate, read-out: Peptide concentration, Pancreas) and 15400 ± 3520 ng/mL in data set [2] (setting [7]). Further, in data set [5], the “stability in rat plasma” value is “exhibited good stability in rat plasma and were more stable than INGAP-PP”.
“Ac-IGLHDPSHGTLPNGS-OH [Peptide 16, Ac-IGLHDPSHGTLPNGS-OH]”: the “stability in culture medium” value in data set [6] was “significantly more stable than INGAP-PP peptide in culture medium”. Moreover, in data set [1], the AUC(0-t) turned out to be 12100 ng·h/mL, the AUC(0-inf) stood at 12200 ng·h/mL and the Cmax was 18900 ng/mL. Further, in data set [3], the AUC(0-t) was 12200 ng·h/mL, the AUC(0-inf) was determined as 12200 ng·h/mL and the Cmax stood at 45200 ng/mL. In addition, the “stability in rat plasma” value in data set [5] is “exhibited good stability in rat plasma and were more stable than INGAP-PP”. Besides, in data set [4], the AUC(0-t) turned out to be 11400 ng·h/mL, the AUC(0-inf) was 11400 ng·h/mL and the Cmax was 14400 ng/mL.
